The record followed here is the METLIN SMRT retention time set (Domingo-Almenara et al. 2019).

Structures are written as SMILES.

A short description of the data set: gradient 5% acetonitrile 3 min, to 50% in 2 min, to 85% in 15 min, held 3 min, 100 µL/min. The note with it: column: Zorbax Extend-C18 2.1 x 50 mm; eluents: water / acetonitrile, 0.1% formic acid. A digest of the protocol: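 The system's dead and dwell volumes were 40 μL and 900 μL, with a Zorbax Extend-C18 column (2.1 × 50 mm, 1.8 μm) run at 100 μL/min in water and acetonitrile containing 0.1% formic acid each. Pure standards were analyzed in mixtures of ~100 molecules by HPLC–quadrupole time-of-flight mass spectrometry in positive and negative ionization mode. Retention time was assigned from computationally picked, manually inspected adduct peaks.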
The compound `O=C(NCC1CCOCC1)Nc1ccccc1C(F)(F)F` yielded an RP-LC retention time of 734 s.
In the case of `COC(=O)C(Cc1ccccc1)NC(=O)Nc1c(-c2ccc(C)cc2)nc2ccccn12` (centres undefined) it was 686 s; in that of `Cc1ccccc1CNC(=O)C1(C)CCCN(C(=O)Nc2ccccc2)C1` (centres undefined), 898 s; in that of `CCN1CCn2cc(S(=O)(=O)Nc3cc(C)ccc3C)cc2C1=O`, 752 s.
In the case of `O=S(=O)(Nc1ccc(F)cc1)c1cccnc1Nc1ccc(F)c(F)c1` it was 1080 s; in that of `N#Cc1ccc(C(=O)Nc2nnc(CSc3ccccc3)o2)cc1`, 749 s; in that of `CC(NC(=O)c1ccc(-c2cncnc2)nc1)c1ccccc1` (centres undefined), 715 s.
In the case of `CO[C@H]1C(=O)N(C(C)C)[C@H]1C1CCN(C(=O)c2cnn(C)c2)CC1` it was 612 s.
As to `CCOc1ccc(Nc2c(C(=O)N3CCSCC3)cnc3nc(C)ccc23)cc1`, the RP-LC retention time was 642 s.
Under `CSc1cccc(NC(=O)Cn2c(=O)n(-c3cccc(C)c3)c(=O)c3c2cc(C)n3C)c1` stands 920 s; under `COc1ccc(NC(=O)Nc2cccc(-c3ccc(N4CCOCC4)nn3)c2)cc1`, 658 s.
In the case of `CCOc1ccc(N2C(=O)CN(CCc3ccccc3F)[C@H]3CS(=O)(=O)C[C@H]32)cc1` it was 840 s.
In the case of `Cc1ccc(NC(=O)N2C[C@@H](F)C[C@H]2C(=O)N2CCCCC2)c(C)c1` it was 732 s; in that of `CCCNc1cc(N2CCC(CCC(=O)N3CCC(C(=O)OCC)CC3)CC2)ncn1`, 664 s.
For `COc1ccc(Cl)cc1Nc1nc(N)nc(CN2CCN(c3ccccn3)CC2)n1`, the RP-LC retention time turned out to be 612 s.
Under `O=C(O)c1cnc(NCc2ccco2)nc1-c1ccccc1` stands 772 s; under `CS(=O)(=O)N1CCCC(c2nnc(-c3ccccc3F)s2)C1` (centres undefined), 757 s; under `O=C(Cc1ccccc1Cl)NC1CCN(c2cc(-c3ccccc3)[nH]n2)C1` (centres undefined), 721 s.
In the case of `CCN(CC)S(=O)(=O)c1ccc2c(c1)N(CC(=O)NCCOC)C(=O)C1CCCCN21` (centres undefined) it was 788 s.
`CC(CC(=O)N1CCN(Cc2ccccc2)CC1)S(=O)(=O)c1ccc2c(c1)CCN2C(=O)C1CC1` (centres undefined) showed an RP-LC retention time of 656 s.
Under `COCCC1CCOC2(CCN(C(=O)C3CC3)CC2)C1` (centres undefined) stands 710 s.
The compound `CCOC(=O)C1=C(CN2CC(C)CC(C)C2)NC(=O)NC1c1ccc(Cl)cc1` (centres undefined) came in with an RP-LC retention time of 688 s.
As to `Cc1cc(NC(=O)c2c(O)c3cccnc3n(-c3ccc(F)cc3)c2=O)ccc1F`, the RP-LC retention time turned out to be 1250 s.
Under `COC(=O)c1ccc2c(=O)n(-c3cc(OC)cc(OC)c3)c(N3CCN(C(C)C)CC3)nc2c1` stands 668 s.
In the case of `COc1ccc(-c2nnc(COc3cccc(NC(=O)CNC(=O)Cc4ccccc4)c3)o2)cc1`, the RP-LC retention time stood at 816 s.
For `O=C1CC(c2ccc3c(c2)OCO3)c2scc(S(=O)(=O)c3ccccc3)c2N1` (centres undefined), the RP-LC retention time came to 905 s.
In the case of `Cc1cc(C)cc(NC(=O)C2CCN(S(C)(=O)=O)c3ccccc3O2)c1` (centres undefined) it was 976 s.
Compound `O=C(Cc1nnc(-c2ccccc2)o1)NCC1CC1` yielded an RP-LC retention time of 684 s.
Under `CS(=O)(=O)N1CCC(N2C[C@H](Oc3ccccc3)[C@@H]2c2ccncc2)CC1` stands 630 s.
As for `Cc1ccccc1Nc1c(-c2ccc(O)cc2)nc2c(C)cccn12`, the RP-LC retention time was determined as 651 s.
`COC1CCC12CCN(S(=O)(=O)c1ccc(C)c(Cl)c1)CC2` (centres undefined) returned an RP-LC retention time of 1160 s.
Under `CS(=O)(=O)N1CCC(OC2CCN(C(=O)NCc3ccc(F)cc3)CC2)CC1` stands 730 s.
In the case of `CCN1C(=O)C2(CCN(S(=O)(=O)c3cc(Cl)ccc3OC)CC2)c2ccccc21` it was 1000 s; in that of `C=C1/C(=C/C=C2/CCC[C@]3(C)[C@@H]([C@H](C)CCCC(C)C)CC[C@@H]23)C[C@@H](O)C[C@@H]1O`, 1220 s.
With `O=C(Nc1ccc(C2(C(=O)NCC3CCCO3)CC2)cc1)c1cccs1` (centres undefined), the RP-LC retention time is 753 s.
Under `CCOc1ccccc1NC(=O)N1CCC2(CC1)NC(=O)c1ccc(F)cc1N2C` stands 817 s.
Under `CCCn1c(=O)sc2cc(S(=O)(=O)N3CCC(C(=O)NC4CCCCC4)CC3)ccc21` stands 967 s; under `CC(C)c1nnc2n1CCN(C(=O)c1nccc3ccccc13)C2`, 605 s.
Take `CC(C)n1cnc2cc(CNC(=O)c3ccnn3C)ccc21`: the RP-LC retention time worked out at 582 s.
Under `Cc1cccc(-c2nc(N)n(C(=O)C(C)(C)C)n2)c1` stands 1090 s; under `CN(CCc1noc(COc2ccccc2)n1)C(=O)c1c(F)cccc1F`, 872 s.
For the compound `Cc1cccc(CNc2nnc(-c3nnc(C)o3)c3ccccc23)c1`, the RP-LC retention time was determined as 831 s.
In the case of `O=C(CN1CCN(C(=O)Nc2ccc(Br)cc2)CC1=O)NC1CCCCCC1` it was 786 s.
In the case of `Cc1ccc2c(c1)OCC(=O)N2Cc1nc(-c2ccc(Cl)c(F)c2)no1` it was 1190 s; in that of `O=C(CSc1nnc(N2CCN(C(=O)c3cccs3)CC2)s1)NCc1ccco1`, 642 s; in that of `COC(=O)CNC(=O)Nc1ccccc1-c1cc2ccccc2[nH]1`, 810 s.
Under `Cc1ccc(NC(=O)N2CCC3(CC2)NC(=O)c2cc(F)ccc2N3C)cc1C` stands 832 s; under `COC(=O)c1cnn2c(C)c(Cc3ccccc3)c(C)nc12`, 835 s.
Consider `Cc1ccccc1NC(=O)CN1C(=O)CCc2cc(S(=O)(=O)N3CCCCC3C)ccc21` (centres undefined), for which the RP-LC retention time came to 896 s.
In the case of `COc1ccccc1C(=O)Nc1nnc(SCc2ccc(Br)cc2)s1` it was 1140 s; in that of `CCN(CC)S(=O)(=O)c1ccc2c(c1)N(CC(=O)NCc1cccnc1)C(=O)C1CCCCN21` (centres undefined), 653 s.
In the case of `Cc1ccc(Cl)cc1N(C)S(=O)(=O)c1cc2n(c1)CCCN(C)C2=O` it was 794 s; in that of `COc1cccc(-c2nc(Cn3cnc4ccccc4c3=O)no2)c1OC`, 802 s.
Take `Cc1ccc(-c2noc(C3CCCN3S(=O)(=O)c3ccc4c(c3)CCCC4)n2)cc1` (centres undefined): the RP-LC retention time was determined as 1350 s.
Under `CCOc1ccc(-c2noc(CN3C(=O)COc4ccc(Cl)cc43)n2)cc1` stands 1130 s; under `Cc1ccc(CNC(=O)C2CCCN(C(=O)Cc3cccc4ccccc34)C2)o1` (centres undefined), 806 s; under `COc1cccc(NC(=O)Cn2c(N3CCCCC3)nc(C)cc2=O)c1`, 658 s.
Under `Cc1cc2c(F)c(Oc3ncnn4cc(OC[C@@H](C)OC(=O)[C@H](C)N)c(C)c34)ccc2[nH]1` stands 746 s; under `Cc1ccc(C)c(NS(=O)(=O)c2ccc(-c3nnc(C4CCC4)o3)o2)c1`, 960 s; under `CC1Oc2ccc(-c3csc(NC(=O)c4ccc(F)cc4)n3)cc2N(C)C1=O` (centres undefined), 1010 s.
The compound `O=C(Nc1cnn(-c2ncncc2N2CCOCC2)c1)c1ccc(C(F)(F)F)cc1` returned an RP-LC retention time of 714 s.
In the case of `CC(=O)NC[C@H]1CN(c2ccc(-c3ccc(CNCc4cn[nH]n4)cc3)c(F)c2)C(=O)O1` it was 647 s; in that of `O=C(NC1COc2ccccc2C1)N1CCN(c2ccccn2)CC1` (centres undefined), 616 s.
The compound `O=C(c1ccc2[nH]ccc2c1)N1C[C@@H]2C[C@H]1C[C@@H]2NS(=O)(=O)c1ccccc1` showed an RP-LC retention time of 730 s.
In the case of `CCN(C(=O)Cn1nc(C(=O)N2CCCCC2)c2ccccc21)c1ccccc1` it was 944 s; in that of `O=c1n(CCc2ccccc2)nc2ccc(S(=O)(=O)N3CCCC3)cn12`, 868 s.
In the case of `O=C(Nc1ccc(C(F)(F)F)cc1)NC1CCN(c2ccc(F)cc2)C1=O` (centres undefined) it was 920 s; in that of `COCCC1CCN(C(=O)CN(C)C(=O)c2cccn2C)CC1`, 670 s; in that of `Cc1cccc(-n2c(=O)c3c(cc(C)n3C)n(CC(=O)Nc3ccc(C)cc3Cl)c2=O)c1`, 942 s.
Under `O=C(NC1CCCC1)C1CCCN(c2ccc(=O)n(-c3cccc(Cl)c3)n2)C1` (centres undefined) stands 845 s; under `Cc1ccc(-c2ccc(-n3nc(C)c(S(=O)(=O)N4CCCC(C)C4)c3C)nn2)cc1` (centres undefined), 1230 s.
As for `O=C(NCC1CCN(C(=O)COc2ccccc2)CC1)c1ccccc1C(F)(F)F`, the RP-LC retention time was determined as 753 s.
`Clc1ccccc1N1CCN(c2cc(-c3nc(-c4ccccc4)no3)c3ccccc3n2)CC1` gave an RP-LC retention time of 1130 s.
Regarding `O=C(COc1ccccc1-c1nnc(-c2ccccc2)o1)Nc1ccc2c(c1)OCO2`, the RP-LC retention time amounted to 1100 s.
For `O=C(CCS(=O)(=O)c1ccccc1)Nc1cc(-c2ccco2)nn1CCO`, the RP-LC retention time is 643 s.
In the case of `O=C(NCc1ccc2c(c1)OCO2)c1cn2c(n1)CSCC2` it was 650 s; in that of `CC1Oc2ccccc2OC1C(=O)Nc1cccc(C(F)(F)F)c1` (centres undefined), 1050 s; in that of `O=C(Nc1nc2c(s1)CN(C(=O)c1cc(C3CC3)on1)CC2)c1ccco1`, 710 s.
Under `CCn1cc(S(=O)(=O)Nc2ccccc2OC)c2cccnc21` stands 831 s.
